Source: patent US20260374766A1, “METHODS FOR TREATING CANCER” (Antares Therapeutics, Inc., priority 2022, published 2026)
Where a name gives a salt, the structure may show the parent alone. Read-outs that look alike come from different tables or passages of the source.

Legend:
[1] = target: T1, p53 Y220C mutant protein (amino acid residues 94-293) (Homo sapiens, UniProt P04637, Y220C); test: Thermal Shift Assay (TSA), dTM; type: binding; details: for ΔTm at 100 µM: 100 uM compound, read-out: TSA P53 Y220C dTM (100 uM); for ΔTm at 10 µM: 10 uM compound
T1 construct: p53 Y220C mutant protein (amino acid residues 94-293)
Method: Thermal Shift Assay (TSA) Protocol
5 μM recombinant p53 Y220C mutant protein (amino acid residues 94-293) was incubated with 10 μM or 100 μM compound for 3 hours at 20 °C in buffer containing 20 mM HEPES, pH7.4, 100 mM NaCl, 0.01% Pluronic F-127, and 1% DMSO in the presence of 400-fold diluted Sypro Orange (ThermoFisher Scientific catalog number 4461146), on a 384-well PCR plate (Applied Biosystems catalog number 4483285). The volume was 5 μL/well. The sealed plate was then loaded onto a QuantStudio 7 Flex instrument for melting temperature (TM) measurement. The temperature was increased from 30 °C to […], at a rate of 0.03 °C/second. Data were fit into a Boltzmann two-state model to determine the TM.

[2] = target: p53 Y220C (Homo sapiens, UniProt P04637, Y220C); test: Luciferase Reporter Assay (Luc), p53 response element, NClH1299 cells with inducible p53 Y220C; type: cell-based; details: 6 hour; for AC50: read-out: Luc P53 Y220C AC50
In short: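 Luminescence readout (One-Glo, 5 min shaking at RT, read at once) after 6 h compound exposure; cells pre-induced 24 h with 0.5 ug/mL doxycycline, 5,000/well.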

[3] = tested on: NUGC3 p53 Y220C; test: Cell Proliferation Assay (CellTiter-Glo, CTG), NUGC3 p53 Y220C; type: cell-based; details: Homo sapiens, NUGC-3, 120 h, 5 days
In short: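 Tet-One inducible p53 Y220C or R273H constructs were stably introduced into NCI-H1299 by lentiviral transduction; NUGC3 was used as is. Cells (250-500 per well) were exposed to compound for 5 days, then CellTiter-Glo was added for 10 min at room temperature and IC50 was calculated from luminescence.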

[4] = tested on: H1299 p53 Y220C; test: Cell Proliferation Assay (CellTiter-Glo, CTG), H1299 p53 Y220C (NClH1299-inducible p53 Y220C); type: cell-based; details: Homo sapiens, NCI-H1299, 120 h, 5 days
In short: (§1)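 Cells seeded at 250-500 per well and exposed to compound for 5 days. Viability read by CellTiter-Glo luminescence after 10 min at room temperature; IC50 calculated. H1299 lines carry Tet-One inducible p53 mutant constructs introduced by lentiviral transduction.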

[5] = tested on: H1299 p53 R273H; test: Cell Proliferation Assay (CellTiter-Glo, CTG), H1299 p53 R273H (NClH1299-inducible p53 R273H); type: cell-based; details: Homo sapiens, NCI-H1299, 120 h, 5 days
In short: as §1

[6] = target: T1, p53 Y220C mutant protein (amino acid residues 94-293); test: Surface Plasmon Resonance (SPR) assay, Kd_kinetic; type: binding; details: SPR, p53 Y220C, read-out: SPR P53 Y220C KD kinetic
In short: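 Surface plasmon resonance is run at 16 or 20 °C in 50 mM Tris pH 7.5 containing 100 mM NaCl, 1 mM DTT, 0.01% Brij35, 0.05% Tween-20 and 1% DMSO. Association and dissociation data are fitted to a 1:1 model.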

[7] = luciferase reporter, NClH1299 inducible p53 Y220C, 10 uM tool compound as positive control
[8] = luciferase reporter, NClH1299 inducible p53 Y220C
[9] = AC50, NClH1299 cells with inducible p53 Y220C
[10] = Emax, NClH1299 cells with inducible p53 Y220C, 10 uM tool compound as positive control
[11] = NClH1299-inducible p53 Y220C cells
[12] = NClH1299-inducible p53 R273H cells

Row | SMILES | ΔTm at 100 µM ([1]; thermal shift) | Emax [2, 7] | AC50 [2, 8] | IC50 ([4]; CellTiter-Glo, H1299 p53 Y220C) | IC50 ([5]; CellTiter-Glo, H1299 p53 R273H) | Kd [6] | other results
1 | COc1cc(S(C)(=O)=O)ccc1NCC#Cc1nc2c(NC3CCN(C(C)=O)CC3)cccn2c1CC(F)(F)F [Example 10, 1-{4-[(2-{3-[(4-methanesulfonyl-2-methoxyphenyl)amino]prop-1-yn-1-yl}-3-(2,2,2-trifluoroethyl)imidazo[1,2-a]pyridin-8-yl)amino]piperidin-1-yl}ethanone] | 5 to 10 °C | 80 to 90% | > 3000 nM | 1500 to 3000 nM | ≥ 10000 nM |  | IC50 ([3]; CellTiter-Glo, NUGC3 p53 Y220C): > 3000 nM
2 | C=C(C)C(=O)Nc1cc(NC2CCN(C)CC2)c2nc(C#CCNc3ccc(C(=O)NC)cc3OC)c(CC(F)(F)F)n2c1 [Example 13, 3-methoxy-N-methyl-4-[(3-{8-[(1-methylpiperidin-4-yl)amino]-6-(2-methylprop-2-enamido)-3-(2,2,2-trifluoroethyl)imidazo[1,2-a]pyridin-2-yl}prop-2-yn-1-yl)amino]benzamide, formic acid salt] | 1 to 5 °C | < 70% |  | > 3000 nM | ≥ 10000 nM |  | IC50 ([3]; CellTiter-Glo, NUGC3 p53 Y220C): > 3000 nM
3 | CC#Cc1nc2c(N[C@@H]3CCN(C)C[C@@H]3F)cccn2c1CC(F)(F)F [Example 18, (3S,4R)-3-fluoro-1-methyl-N-[2-(prop-1-yn-1-yl)-3-(2,2,2-trifluoroethyl)imidazo[1,2-a]pyridin-8-yl]piperidin-4-amine] | 5 to 10 °C | < 70% | > 3000 nM | > 3000 nM | ≥ 10000 nM |  | Kd ([6]; kinetic KD): 10 to 100 nM
4 | CC#Cc1nc2c(NC3CCN(C)CC3)cccn2c1CC(F)(F)F [Example 19, 1-methyl-N-[2-(prop-1-yn-1-yl)-3-(2,2,2-trifluoroethyl)imidazo[1,2-a]pyridin-8-yl]piperidin-4-amine] | 5 to 10 °C | < 70% | > 3000 nM | > 3000 nM | ≥ 10000 nM |  | Kd ([6]; kinetic KD): 100 to 1000 nM
5 | C=Cc1c(C#CC)nc2c(NC3CCN(C)CC3)cccn12 [Example 21, N-[3-ethenyl-2-(prop-1-yn-1-yl)imidazo[1,2-a]pyridin-8-yl]-1-methylpiperidin-4-amine] | 1 to 5 °C |  |  |  |  |  | 
6 | C=CC(=O)Nc1c(C#CCNc2ccc(C(=O)NC)cc2OC)nc2c(N[C@@H]3CCN(C)C[C@@H]3F)cccn12 [Example 23, 4-{[3-(8-{[(3S,4R)-3-fluoro-1-methylpiperidin-4-yl]amino}-3-(prop-2-enamido)imidazo[1,2-a]pyridin-2-yl)prop-2-yn-1-yl]amino}-3-methoxy-N-methylbenzamide] | 5 to 10 °C | < 70% | > 3000 nM | > 3000 nM | ≥ 10000 nM |  | IC50 ([3]; CellTiter-Glo, NUGC3 p53 Y220C): > 3000 nM
7 | C=CC(=O)N(C)c1c(C#CCNc2ccc(C(=O)NC)cc2OC)nc2c(N[C@@H]3CCN(C)C[C@@H]3F)cccn12 [Example 26, 4-{[3-(8-{[(3S,4R)-3-fluoro-1-methylpiperidin-4-yl]amino}-3-(N-methylprop-2-enamido)imidazo[1,2-a]pyridine-2-yl)prop-2-yn-1-yl]amino}-3-methoxy-N-methylbenzamide] | 5 to 10 °C | < 70% | > 3000 nM | > 3000 nM | ≥ 10000 nM |  | IC50 ([3]; CellTiter-Glo, NUGC3 p53 Y220C): > 3000 nM
8 | COc1cc(S(C)(=O)=O)ccc1NCC#Cc1nc2c(NC3CCN(C)CC3)cc(NC(=O)OC(C)(C)C)cn2c1CC(F)(F)F [Example 31, tert-butyl N-(2-{3-[(4-methanesulfonyl-2-methoxyphenyl)amino]prop-1-yn-1-yl}-8-[(1-methylpiperidin-4-yl)amino]-3-(2,2,2-trifluoroethyl)imidazo[1,2-a]pyridin-6-yl) carbamate] | 1 to 5 °C |  |  |  |  |  | 
9 | CNC(=O)c1ccc(NCC#Cc2nc3c(N[C@@H]4CCN(CC(C)(C)O)C[C@@H]4F)cccn3c2SC(F)(F)F)c(OC)c1 [Example 164] |  | 80 to 90% | < 750 nM | < 750 nM |  |  | Kd ([6]; kinetic KD): < 10 nM; ΔTm at 10 µM ([1]; thermal shift, read-out: TSA P53 Y220C dTM (10 uM)): ≥ 10 °C
10 | CNC(=O)c1cnc(OC)c(NCC#Cc2nc3c(N[C@@H]4C[C@H]5CC[C@@H]([C@@H]4F)N5C)cccn3c2SC(F)(F)F)c1 [Example 265] |  |  |  |  |  | < 10 nM | ΔTm at 10 µM ([1]; p53 Y220C, read-out: TSA P53 Y220C dTM): ≥ 10 °C; AC50 ([2]; AC50, luciferase reporter, NClH1299 inducible p53 Y220C): < 750 nM; Emax ([2]; Emax, luciferase reporter, NClH1299 inducible p53 Y220C): > 90%; IC50 ([4]; NClH1299-inducible p53 Y220C cells, CellTiter-Glo): < 750 nM
11 | [2H]C([2H])([2H])N1CC[C@@H](Nc2cccn3c(SC(F)(F)F)c(C#CCNc4ccc(C(=O)NC)cc4OC)nc23)[C@@H](F)C1 [Example 476, 4-((3-(8-(((3S,4R)-3-fluoro-1-(methyl-d3)piperidin-4-yl)amino)-3-((trifluoromethyl)thio)imidazo[1,2-a]pyridin-2-yl)prop-2-yn-1-yl)amino)-3-methoxy-N-methylbenzamide] |  |  |  |  |  | < 10 nM | ΔTm at 10 µM ([1]; read-out: TSA P53 Y220C dTM): ≥ 10 °C; AC50 [2, 9]: < 750 nM; Emax [2, 10]: > 90%; IC50 [4, 11]: < 750 nM
12 | CNC(=O)c1ccc(NCC#Cc2cc3c(N[C@@H]4CCN(C)C[C@@H]4F)cccn3c2SC(F)(F)F)c(F)c1 [Example 502, 3-fluoro-4-{[3-(8-{[(3S,4R)-3-fluoro-1-methylpiperidin-4-yl]amino}-3-[(trifluoromethyl)sulfanyl]indolizin-2-yl)prop-2-yn-1-yl]amino}-N-methylbenzamide] |  |  |  |  |  | < 10 nM | AC50 [2, 9]: < 750 nM; Emax [2, 10]: > 90%; IC50 ([3]; NUGC3 cells): < 750 nM; IC50 [4, 11]: < 750 nM; IC50 [5, 12]: ≥ 10000 nM
13 | CNC(=O)c1ccc(NCC#Cc2cc3c(N[C@@H]4CCN(C5COC5)C[C@@H]4F)cccn3c2SC(F)(F)F)c(OC)c1 [Example 504, 4-{[3-(8-{[(3S,4R)-3-fluoro-1-(oxetan-3-yl)piperidin-4-yl]amino}-3-[(trifluoromethyl)sulfanyl]indolizin-2-yl)prop-2-yn-1-yl]amino}-3-methoxy-N-methylbenzamide] |  |  |  |  |  | < 10 nM | AC50 [2, 9]: < 750 nM; Emax [2, 10]: > 90%; IC50 ([3]; NUGC3 cells): < 750 nM; IC50 [4, 11]: < 750 nM; IC50 [5, 12]: < 5000 nM
14 | CNC(=O)c1ccc(C(=O)NC)c(NCC#Cc2cc3c(N[C@@H]4CCN(C)C[C@@H]4F)cccn3c2SC(F)(F)F)c1 [Example 508] |  |  |  |  |  | < 10 nM | AC50 [2, 9]: < 750 nM; Emax [2, 10]: > 90%; IC50 ([3]; NUGC3 cells): < 750 nM; IC50 [4, 11]: < 750 nM; IC50 [5, 12]: 8000 to 10000 nM
